Starred links: 1 amine or outer side, 2 acyl side, 3 side chain; linkers in the order of their positions; H or OH if unused. Positions of bridges follow the written chain, without caps; N, C: chain ends. Non-standard residues stand in square brackets, D forms with d. Residues, ends and D or L forms follow the SMILES beside them. Groups on a side chain read outwards from the residue. *: point of attachment. Trp(1-Me) = Cn1cc(C[C@H](N)C(=O)O)c2ccccc21; C18 diacid = O=C(O)CCCCCCCCCCCCCCCCC(=O)*; C16 diacid = O=C(O)CCCCCCCCCCCCCCC(=O)*; γGlu = O=C(O)[C@H](CCC(=O)[*:2])N[*:1]; AEEA = NCCOCCOCC(=O)O; Sar = CNCC(=O)O
How the values were obtained:
[1] = test system: classical complement pathway; experiment: In vitro haemolysis assay (inhibition of classical complement pathway); format: cell-based, human; settings: Table 3; human serum, sensitized sheep red blood cells; read-out: IC50[nM], in vitro analysis of inhibition of hemolysis
How it was run: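 Serially diluted compound (9 points) was preincubated 15 min at room temperature with diluted human serum, titrated per batch to give 70-90% maximal haemolysis, in Tris/casein buffer pH 7.4 with Mg2+/Ca2+. Antibody-sensitized sheep erythrocytes were then added for 30 min at 37° C, and the reaction was stopped with EDTA. Haemolysis was read at A405, with IC50 from 4PL fit.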

[2] = Solubility test at 10 mg/mL (visual inspection and light scattering); format: physicochemical; settings: for Solubility, Condition 1 Acetate pH 4: 10 mg/mL compound in 100 mM acetate pH 4; for Solubility, Condition 2 Acetate pH 5: 10 mg/mL compound in 100 mM acetate pH 5; for Solubility, Condition 3 Phosphate pH 6: 10 mg/mL compound in 100 mM phosphate pH 6; for Solubility, Condition 4 Phosphate pH 7: 10 mg/mL compound in 100 mM phosphate pH 7; for Solubility, Condition 5 Phosphate pH 7.5: 10 mg/mL compound in 100 mM phosphate pH 7.5

Compound | IC50 [1] [nM] | Solubility, Condition 1 Acetate pH 4 [2] | Solubility, Condition 2 Acetate pH 5 [2] | Solubility, Condition 3 Phosphate pH 6 [2] | Solubility, Condition 4 Phosphate pH 7 [2] | Solubility, Condition 5 Phosphate pH 7.5 [2]
CC[C@H](C)[C@@H]1NC(=O)[C@@H](NC(=O)[C@@H](NC(=O)[C@H](CCC(=O)O)NC(=O)[C@H](CO)NC(=O)[C@H](CCC(=O)O)NC(C)=O)[C@@H](C)CC)CSSC[C@@H](C(=O)N[C@H](C(N)=O)[C@@H](C)O)NC(=O)[C@H](CCCNC(=N)N)NC(=O)[C@H](Cc2c[nH]cn2)NC(=O)[C@H](CCC(=O)O)NC(=O)CNC(=O)[C@H](Cc2c[nH]c3ccccc23)NC(=O)[C@H](CC(=O)O)NC(=O)[C@H](CCC(N)=O)NC(=O)[C@H](Cc2c[nH]c3ccccc23)NC1=O [Compound 31] (Ac-ESEICIWQDWGEHRCT-NH2; disulfide 5-15) | < 100 | + (denotes solubility at the given condition, as determined by UV absorbance being less than 0.1 AU at 340 nm and the sample being clear when manually inspected.) | + (denotes solubility at the given condition, as determined by UV absorbance being less than 0.1 AU at 340 nm and the sample being clear when manually inspected.) | + (denotes solubility at the given condition, as determined by UV absorbance being less than 0.1 AU at 340 nm and the sample being clear when manually inspected.) | + (denotes solubility at the given condition, as determined by UV absorbance being less than 0.1 AU at 340 nm and the sample being clear when manually inspected.) | + (denotes solubility at the given condition, as determined by UV absorbance being less than 0.1 AU at 340 nm and the sample being clear when manually inspected.)
CC[C@H](C)[C@@H]1NC(=O)[C@@H](NC(=O)[C@H](Cc2ccccc2)NC(C)=O)CSSC[C@@H](C(=O)N[C@H](C(=O)NCC(=O)N[C@@H](C)C(=O)N[C@@H](CCC(=O)O)C(=O)N[C@@H](CO)C(=O)N[C@@H](CCCCNC(=O)COCCOCCNC(=O)COCCOCCNC(=O)CC[C@H](NC(=O)CCCCCCCCCCCCCCC(=O)O)C(=O)O)C(N)=O)[C@@H](C)O)NC(=O)[C@H](CCCNC(=N)N)NC(=O)[C@H](Cc2c[nH]cn2)NC(=O)[C@H](CCC(=O)O)NC(=O)CNC(=O)[C@H](Cc2c[nH]c3ccccc23)NC(=O)[C@H](CC(=O)O)NC(=O)[C@H](CCC(N)=O)NC(=O)[C@H](Cc2cn(C)c3ccccc23)NC1=O [Compound 102] (Ac-FCI[Trp(1-Me)]QDWGEHRCTGAESK([AEEA-AEEA-γGlu-C16 diacid])-NH2; disulfide 2-12) | < 100 | − (denotes lack of solubility at the given condition, as UV absorbance at 340 nm exceeds 0.1 AU and/or it is visibly turbid or contains particles.) | + (denotes solubility at the given condition, as determined by UV absorbance being less than 0.1 AU at 340 nm and the sample being clear when manually inspected.) | + (denotes solubility at the given condition, as determined by UV absorbance being less than 0.1 AU at 340 nm and the sample being clear when manually inspected.) | + (denotes solubility at the given condition, as determined by UV absorbance being less than 0.1 AU at 340 nm and the sample being clear when manually inspected.) | + (denotes solubility at the given condition, as determined by UV absorbance being less than 0.1 AU at 340 nm and the sample being clear when manually inspected.)
CC[C@H](C)[C@@H]1NC(=O)[C@@H](NC(=O)[C@H](Cc2ccc(O)cc2)NC(C)=O)CSSC[C@@H](C(=O)N[C@H](C(=O)NCC(=O)N[C@@H](C)C(=O)N[C@@H](CCC(=O)O)C(=O)N[C@@H](CO)C(N)=O)[C@@H](C)O)NC(=O)[C@H](CCCNC(=N)N)NC(=O)[C@H](Cc2c[nH]cn2)NC(=O)[C@H](CCC(=O)O)NC(=O)CNC(=O)[C@H](Cc2c[nH]c3ccccc23)NC(=O)[C@H](CC(=O)O)NC(=O)[C@H](CCC(N)=O)NC(=O)[C@H](Cc2c[nH]c3ccccc23)NC1=O [Compound 66] (Ac-YCIWQDWGEHRCTGAES-NH2; disulfide 2-12) | < 100 | − (denotes lack of solubility at the given condition, as UV absorbance at 340 nm exceeds 0.1 AU and/or it is visibly turbid or contains particles.) | − (denotes lack of solubility at the given condition, as UV absorbance at 340 nm exceeds 0.1 AU and/or it is visibly turbid or contains particles.) | + (denotes solubility at the given condition, as determined by UV absorbance being less than 0.1 AU at 340 nm and the sample being clear when manually inspected.) | + (denotes solubility at the given condition, as determined by UV absorbance being less than 0.1 AU at 340 nm and the sample being clear when manually inspected.) | + (denotes solubility at the given condition, as determined by UV absorbance being less than 0.1 AU at 340 nm and the sample being clear when manually inspected.)
CC[C@H](C)[C@H](NC(=O)[C@H](C)NC(=O)[C@H](CO)NC(=O)CNC(=O)[C@H](CCC(=O)O)NC(C)=O)C(=O)N[C@H]1CSSC[C@@H](C(=O)N(C)CC(=O)N[C@@H](CCC(=O)O)C(N)=O)NC(=O)[C@H](CCCNC(=N)N)NC(=O)[C@H](Cc2c[nH]cn2)NC(=O)[C@H](CCC(=O)O)NC(=O)CNC(=O)[C@H](Cc2c[nH]c3ccccc23)NC(=O)[C@H](CC(=O)O)NC(=O)[C@H](CCC(N)=O)NC(=O)[C@H](Cc2cn(C)c3ccccc23)NC(=O)[C@H]([C@@H](C)CC)NC1=O [Compound 49] (Ac-EGSAICI[Trp(1-Me)]QDWGEHRC[Sar]E-NH2; disulfide 6-16) | < 100 | − (denotes lack of solubility at the given condition, as UV absorbance at 340 nm exceeds 0.1 AU and/or it is visibly turbid or contains particles.) | − (denotes lack of solubility at the given condition, as UV absorbance at 340 nm exceeds 0.1 AU and/or it is visibly turbid or contains particles.) | + (denotes solubility at the given condition, as determined by UV absorbance being less than 0.1 AU at 340 nm and the sample being clear when manually inspected.) | + (denotes solubility at the given condition, as determined by UV absorbance being less than 0.1 AU at 340 nm and the sample being clear when manually inspected.) | + (denotes solubility at the given condition, as determined by UV absorbance being less than 0.1 AU at 340 nm and the sample being clear when manually inspected.)
CC[C@H](C)[C@H](NC(C)=O)C(=O)N[C@H]1CSSC[C@@H](C(=O)N[C@H](C(=O)NCC(=O)N[C@@H](C)C(=O)N[C@@H](CCC(=O)O)C(=O)N[C@@H](CO)C(N)=O)[C@@H](C)O)NC(=O)[C@H](CCCNC(=N)N)NC(=O)[C@H](Cc2c[nH]cn2)NC(=O)[C@H](CCC(=O)O)NC(=O)CNC(=O)[C@H](Cc2c[nH]c3ccccc23)NC(=O)[C@H](CC(=O)O)NC(=O)[C@H](CCC(N)=O)NC(=O)[C@H](Cc2cn(C)c3ccccc23)NC(=O)[C@H]([C@@H](C)CC)NC1=O [Compound 51] (Ac-ICI[Trp(1-Me)]QDWGEHRCTGAES-NH2; disulfide 2-12) | < 100 | − (denotes lack of solubility at the given condition, as UV absorbance at 340 nm exceeds 0.1 AU and/or it is visibly turbid or contains particles.) | − (denotes lack of solubility at the given condition, as UV absorbance at 340 nm exceeds 0.1 AU and/or it is visibly turbid or contains particles.) | + (denotes solubility at the given condition, as determined by UV absorbance being less than 0.1 AU at 340 nm and the sample being clear when manually inspected.) | + (denotes solubility at the given condition, as determined by UV absorbance being less than 0.1 AU at 340 nm and the sample being clear when manually inspected.) | + (denotes solubility at the given condition, as determined by UV absorbance being less than 0.1 AU at 340 nm and the sample being clear when manually inspected.)
CC[C@H](C)[C@@H]1NC(=O)[C@@H](NC(=O)[C@H](Cc2ccc(O)cc2)NC(=O)[C@H](CCC(=O)O)NC(=O)[C@H](CO)NC(C)=O)CSSC[C@@H](C(=O)N(C)CC(=O)N[C@@H](CCC(=O)O)C(=O)NCC(=O)N[C@@H](CCC(=O)O)C(=O)N[C@@H](CCCCNC(=O)CC[C@H](NC(=O)CNC(=O)CC[C@H](NC(=O)CCCCCCCCCCCCCCCCC(=O)O)C(=O)O)C(=O)O)C(N)=O)NC(=O)[C@H](CCCNC(=N)N)NC(=O)[C@H](Cc2c[nH]cn2)NC(=O)[C@H](CCC(=O)O)NC(=O)CNC(=O)[C@H](Cc2c[nH]c3ccccc23)NC(=O)[C@H](CC(=O)O)NC(=O)[C@H](CCC(N)=O)NC(=O)[C@H](Cc2cn(C)c3ccccc23)NC1=O [Compound 114] (Ac-SEYCI[Trp(1-Me)]QDWGEHRC[Sar]EGEK([γGlu-Gly-γGlu-C18 diacid])-NH2; disulfide 4-14) | < 500 | + (denotes solubility at the given condition, as determined by UV absorbance being less than 0.1 AU at 340 nm and the sample being clear when manually inspected.) | + (denotes solubility at the given condition, as determined by UV absorbance being less than 0.1 AU at 340 nm and the sample being clear when manually inspected.) | + (denotes solubility at the given condition, as determined by UV absorbance being less than 0.1 AU at 340 nm and the sample being clear when manually inspected.) | + (denotes solubility at the given condition, as determined by UV absorbance being less than 0.1 AU at 340 nm and the sample being clear when manually inspected.) | + (denotes solubility at the given condition, as determined by UV absorbance being less than 0.1 AU at 340 nm and the sample being clear when manually inspected.)

Source: patent US20220306695A1, “COMPSTATIN ANALOGUES AND THEIR MEDICAL USES” (priority 2019, published 2022)
